Laboratory results reported in patent publication US8802597B2, “Herbicidal pyrimidines” (E I du Pont de Nemours and Company, priority 2003, dated 2014).

What was measured:
Assay type in all cases: in vivo
[1] = system: barnyardgrass (Echinochloa crus-galli); test: Test B flooded paddy test; details: Flood, 1000 g ai/ha; scale 0 (no effect) to 100 (complete control)
How it was run: (§1)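 Plants were grown to the 2-leaf stage before treatment, then kept in a greenhouse for 13 to 15 days. Injury was rated visually against untreated controls on a 0 to 100 scale, where 0 is no effect and 100 is complete control.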

rice (Oryza sativa) = test: Test B flooded paddy test; details: Flood, 1000 g ai/ha; scale 0 to 100
How it was run: as §1

[2] = system: duck salad (Heteranthera limosa); test: Test B flooded paddy test; details: Flood, 1000 g ai/ha; scale 0 to 100
How it was run: as §1

[3] = system: umbrella sedge (Cyperus difformis); test: Test B flooded paddy test; details: Flood, 1000 g ai/ha; scale 0 to 100
How it was run: as §1

[4] = system: pigweed (Amaranthus retroflexus); test: Test B pre/postemergence
Text: (§2) Seeds selected from barnyardgrass (Echinochloa crus-galli), Surinam grass (Brachiaria decumbens), cocklebur (Xanthium strumarium), corn (Zea mays), crabgrass (Digitaria sanguinalis), giant foxtail (Setaria faberii), lambsquarters (Chenopodium album), morningglory (Ipomoea coccinea), pigweed (Amaranthus retroflexus), velvetleaf (Abutilon theophrasti), and wheat (Triticum aestivum) were planted and treated preemergence with test chemicals formulated in a non-phytotoxic solvent mixture which included a surfactant.
(§3) At the same time, plants selected from these crop and weed species and also blackgrass (Alopecurus myosuroides) and wild oat (Avena fatua) were treated with postemergence applications of test chemicals formulated in the same manner. Plants ranged in height from 2 to 18 cm (1- to 4-leaf stage) for postemergence treatments. Plant species in the flooded paddy test consisted of rice (Oryza sativa), umbrella sedge (Cyperus difformis), duck salad (Heteranthera limosa) and barnyardgrass (Echinochloa crus-galli) grown to the 2-leaf stage for testing. Treated plants and controls were maintained in a greenhouse for 13 to 15 days, after which time all species were compared to controls and visually evaluated. Plant response ratings, summarized in Table B, are based on a scale of 0 to 100 where 0 is no effect and 100 is complete control. A dash (-) response means no test result.

[5] = system: barnyardgrass (Echinochloa crus-galli); test: Test B pre/postemergence
Text: as §2, §3

[6] = system: lambsquarters (Chenopodium album); test: Test B pre/postemergence
Text: as §2, §3

[7] = system: crabgrass (Digitaria sanguinalis); test: Test B pre/postemergence
Text: as §2, §3

[8] = system: giant foxtail (Setaria faberii); test: Test B pre/postemergence
Text: as §2, §3

corn (Zea mays) = test: Test B pre/postemergence
Text: as §2, §3

[9] = system: cocklebur (Xanthium strumarium); test: Test B pre/postemergence
Text: as §2, §3

[10] = system: velvetleaf (Abutilon theophrasti); test: Test B pre/postemergence
Text: as §2, §3

[11] = system: Surinam grass (Brachiaria decumbens); test: Test B pre/postemergence
Text: as §2, §3

[12] = system: morningglory (Ipomoea coccinea); test: Test B pre/postemergence
Text: as §2, §3

[13] = system: wheat (Triticum aestivum); test: Test B pre/postemergence
Text: as §2, §3

wild oat (Avena fatua) = test: Test B postemergence
How it was run: (§4)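 Following sowing, compounds in a surfactant-bearing non-phytotoxic solvent were applied preemergence; emerged plants 2 to 18 cm high got postemergence treatment concurrently. Evaluation: 13 to 15 days later, greenhouse, 0–100 visual scale.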

[14] = system: blackgrass (Alopecurus myosuroides); test: Test B postemergence
How it was run: as §4

[15] = Postemergence, 125 g ai/ha, scale 0 to 100 (0 no effect, 100 complete control)
[16] = Postemergence, 500 g ai/ha, scale 0 to 100
[17] = Preemergence, 125 g ai/ha, scale 0 to 100 (0 no effect, 100 complete control)
[18] = Preemergence, 500 g ai/ha, scale 0 to 100 (0 no effect, 100 complete control)
[19] = 125 g ai/ha, scale 0 to 100 (0 no effect, 100 complete control)

For `COC(OC)c1nc(C2CC2)nc(N)c1F` [Compound 46], the “Plant response rating, Barnyardgrass” value [1] was 0, the “Plant response rating, Rice” value (rice (Oryza sativa)) was 0 and the “Plant response rating, Ducksalad” value [2] was 60. The “Plant response rating, Sedge, Umbrella” value [3] was 30, the “Pigweed plant response rating” value [4, 15] was 70 and the “Plant response rating, Pigweed” value [4, 16] was 80. The “Plant response rating, Pigweed” value [4, 17] was 80, the “Pigweed plant response rating” value [4, 18] was 90 and the “Barnyardgrass plant response rating” value [5, 15] was 0. For the same compound, the “Plant response rating, Barnyardgrass” value [5, 16] was 30, the “Plant response rating, Barnyardgrass” value [5, 17] was 0 and the “Barnyardgrass plant response rating” value [5, 18] was 0. For the same compound, the “Lambsquarters plant response rating” value [6, 15] was 10, the “Plant response rating, Lambsquarters” value [6, 16] was 30 and the “Plant response rating, Lambsquarters” value [6, 17] was 10. For the same compound, the “Lambsquarters plant response rating” value [6, 18] was 60, the “Crabgrass plant response rating” value [7, 15] was 10 and the “Plant response rating, Crabgrass” value [7, 16] was 30. The “Plant response rating, Crabgrass” value [7, 17] was 0, the “Crabgrass plant response rating” value [7, 18] was 40 and the “Foxtail, Giant plant response rating” value [8, 15] was 0. The “Plant response rating, Foxtail, Giant” value [8, 16] was 10, the “Plant response rating, Foxtail, Giant” value [8, 17] was 0 and the “Foxtail, Giant plant response rating” value [8, 18] was 50. For the same compound, the “Corn plant response rating” value (corn (Zea mays); [15]) was 0, the “Plant response rating, Corn” value (corn (Zea mays); [16]) was 0 and the “Plant response rating, Corn” value (corn (Zea mays); [17]) was 0. For the same compound, the “Corn plant response rating” value (corn (Zea mays); [18]) was 0, the “Cocklebur plant response rating” value [9, 15] was 0 and the “Plant response rating, Cocklebur” value [9, 16] was 0. For the same compound, the “Plant response rating, Cocklebur” value [9, 17] was 0, the “Cocklebur plant response rating” value [9, 18] was 40 and the “Velvetleaf plant response rating” value [10, 15] was 0. For the same compound, the “Plant response rating, Velvetleaf” value [10, 16] was 0, the “Plant response rating, Velvetleaf” value [10, 17] was 0 and the “Velvetleaf plant response rating” value [10, 18] was 20. For the same compound, the “Surinam Grass plant response rating” value [11, 15] was 0, the “Plant response rating, Surinam Grass” value [11, 16] was 10 and the “Plant response rating, Surinam Grass” value [11, 17] was 0. For the same compound, the “Surinam Grass plant response rating” value [11, 18] was 40, the “Morningglory plant response rating” value [12, 15] was 80 and the “Plant response rating, Morningglory” value [12, 16] was 90. For the same compound, the “Plant response rating, Morningglory” value [12, 17] was 50, the “Morningglory plant response rating” value [12, 18] was 90 and the “Wheat plant response rating” value [13, 15] was 0. For the same compound, the “Plant response rating, Wheat” value [13, 16] was 0, the “Plant response rating, Wheat” value [13, 17] was 0 and the “Plant response rating, Wheat” value [13, 18] was 20. For the same compound, the “Oat, Wild plant response rating” value (wild oat (Avena fatua); [19]) was 0, the “Plant response rating, Oat, Wild” value (wild oat (Avena fatua); 500 g ai/ha, scale 0 to 100) was 0 and the “Blackgrass plant response rating” value [14, 19] was 0. For the same compound, the “Plant response rating, Blackgrass” value ([14]; 500 g ai/ha, scale 0 to 100) was 10.
